Earlier results, collected in US6465495B1, “Preparation of pyridone-based phosphotyrosine mimetics and uses thereof” (OSI Pharmaceuticals, Inc., priority 1998, dated 2002).

Settings: literature values

For `N[C@@H](Cc1ccc(OP(=O)(O)O)cc1)C(=O)O` [pTyr], the pKA2 is given as 5.7.
